The supplement of paper PMC10307832

Key:
Assay in all cases: relative viability (nuclei count vs DMSO), 5 days (fraction); higher = more cells survive
[1] = compound: O=C(O)C(Cc1ccccc1[N+](=O)[O-])=NNc1nc(-c2ccc(Cl)c(Cl)c2)cs1 (mixture of isomers) [4EGI-1] + CC(C)C[C@H](NC(=O)[C@H](Cc1ccccc1)NC(=O)c1cnccn1)B(O)O [Bortezomib] (partner 0.002 µM)
Procedure, shortened: (§1)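 The day after seeding in 1536-well plates, lung cancer cell lines were treated by pin tool with a single drug, or with a fixed anchor-drug dose together with five library-drug doses (not always all listed) in √10 steps. After 5 days, a combined fix-and-stain solution (final 0.05% Triton X-100, 1% formaldehyde, 1 ug/ml Hoechst) was added. Nuclei counted on 4× images gave relative viability as treated counts over vehicle counts, reported as the median of duplicate plates.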

[2] = compound: CN1CCN(CC1)C2=CC(=C(C=C2)NC3=NC=C4C(=N3)N(C5=CC=CC=C5C(=O)N4C)C)OC [XMD8-85] + Cc1nc(NC(=O)N2CCC[C@H]2C(N)=O)sc1-c1ccnc(C(C)(C)C(F)(F)F)c1 [Alpelisib] (partner 2 µM)
Procedure, shortened: as §1

[3] = compound: CN1CCN(CC1)C2=CC(=C(C=C2)NC3=NC=C4C(=N3)N(C5=CC=CC=C5C(=O)N4C)C)OC [XMD8-85]
Procedure, shortened: (§2)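 Viability here means nuclei in treated wells divided by nuclei in vehicle wells, reported as the median across plates. Only plates with control CV below 25% and at least one doubling passed. Lung cancer cell lines in 1536-well plates were exposed to five √10-spaced library-drug doses for 5 days and counted from 4× Hoechst images in MetaXpress.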

[4] = compound: O=C(O)C(Cc1ccccc1[N+](=O)[O-])=NNc1nc(-c2ccc(Cl)c(Cl)c2)cs1 (mixture of isomers) [4EGI-1]
Procedure, shortened: as §2

Cell Line	relative viability ([1]; first compound 0.5 µM)	relative viability ([1]; first compound 1.581 µM)	relative viability ([1]; first compound 5 µM)	relative viability ([1]; first compound 15.81 µM)	relative viability ([1]; first compound 50 µM)	relative viability ([2]; first compound 0.08 µM)	relative viability ([2]; first compound 0.253 µM)	relative viability ([2]; first compound 0.8 µM)	relative viability ([2]; first compound 2.53 µM)	relative viability ([2]; first compound 8 µM)	relative viability ([3]; 0.08 µM)	relative viability ([3]; 0.253 µM)	relative viability ([3]; 0.8 µM)	relative viability ([3]; 2.53 µM)	relative viability ([3]; 8 µM)	relative viability ([4]; 0.5 µM)	relative viability ([4]; 1.581 µM)	relative viability ([4]; 5 µM)	relative viability ([4]; 15.81 µM)	relative viability ([4]; 50 µM)
NCI-H2405	0.972	0.858	0.949	0.992	0.79	0.812	0.818	0.833	0.539	0.568	1.02	1.06	1.06	1.01	0.781	1.04	0.819	1.08	1.03	0.984
NCI-H3122	1.07	0.975	0.918	1.06	0.352	0.814	0.71	0.954	0.93	0.766	1.09	0.965	1.08	0.972	0.967	0.987	0.918	0.969	0.964	0.683
PC-3 [JPC-3]	0.787	0.81	0.812	–	0.645	1.02	1.05	1.06	1.01	1.01	1.06	1.03	0.993	1.11	0.942	1.01	0.991	1	–	0.691
PC-14	1.06	–	0.839	–	0.859	0.784	0.882	0.762	0.993	0.655	0.996	0.906	0.984	1.03	0.587	1.01	–	1.05	0.341	0.395
RERF-LC-KJ	1.09	–	1.07	0.847	0.931	0.763	0.675	0.957	0.915	0.677	0.992	0.939	1.07	1.13	0.82	1.1	0.629	0.936	0.805	0.637
SK-LU-1	1.18	–	1.36	1.53	0.913	0.924	1.07	1.08	1.01	0.855	0.921	1.07	1.08	1.06	0.96	1.12	1.11	1.14	0.998	0.58
SW 1573	1.4	1.06	0.972	0.948	0.822	0.917	0.596	0.745	0.615	0.663	1.02	1.1	1.08	0.982	–	1.24	0.862	1.03	0.673	0.445
UMC-11	1.04	0.872	0.669	0.679	0.255	0.954	0.931	1	0.939	0.387	1.03	0.982	1.11	0.964	0.739	1.13	1.11	1.01	0.986	0.403
